Source: ChEMBL document CHEMBL6087456 (J Med Chem, 2025)
Values after ≈ are worked out from the molar mass of the structure shown.

Assays:
[1] = target: T1, Dihydroorotate dehydrogenase (quinone), mitochondrial (Plasmodium falciparum (isolate 3D7), UniProt Q08210); experiment: Inhibition of N-terminal His6-tagged recombinant Plasmodium falciparum DHODH (158 to 569 residues) N-terminally truncated soluble domain extracted from Escherichia coli phage resistant BL21-DE3 using CoQD/DHA/DCIP as substrates
T1 sequence (Q08210 whole entry): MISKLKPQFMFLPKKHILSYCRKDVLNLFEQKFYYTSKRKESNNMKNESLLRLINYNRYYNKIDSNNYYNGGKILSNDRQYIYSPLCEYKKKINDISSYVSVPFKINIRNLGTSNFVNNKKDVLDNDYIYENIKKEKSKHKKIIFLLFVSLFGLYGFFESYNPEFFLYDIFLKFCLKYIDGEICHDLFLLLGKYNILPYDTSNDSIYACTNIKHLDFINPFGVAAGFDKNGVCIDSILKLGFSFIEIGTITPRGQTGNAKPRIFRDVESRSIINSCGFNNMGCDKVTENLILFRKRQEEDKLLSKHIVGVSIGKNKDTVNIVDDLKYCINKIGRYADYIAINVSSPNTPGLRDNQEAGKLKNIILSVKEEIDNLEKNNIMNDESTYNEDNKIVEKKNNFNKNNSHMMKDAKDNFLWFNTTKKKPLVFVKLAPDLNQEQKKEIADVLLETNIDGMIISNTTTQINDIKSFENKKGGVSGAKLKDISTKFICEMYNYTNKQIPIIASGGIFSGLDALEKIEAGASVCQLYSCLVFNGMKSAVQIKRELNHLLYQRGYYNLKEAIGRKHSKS

[2] = target: Dihydroorotate dehydrogenase (quinone), mitochondrial (Homo sapiens, UniProt Q02127); experiment: Inhibition of C-terminal His6-tagged recombinant human DHODH (29 to 395 residues) N-terminally truncated soluble domain extracted from Escherichia coli phage resistant BL21-DE3 using CoQD/DHA/DCIP as substrates
Sequence of Dihydroorotate dehydrogenase (quinone), mitochondrial (Homo sapiens, UniProt Q02127) (Q02127 whole entry, the tested form may be a part): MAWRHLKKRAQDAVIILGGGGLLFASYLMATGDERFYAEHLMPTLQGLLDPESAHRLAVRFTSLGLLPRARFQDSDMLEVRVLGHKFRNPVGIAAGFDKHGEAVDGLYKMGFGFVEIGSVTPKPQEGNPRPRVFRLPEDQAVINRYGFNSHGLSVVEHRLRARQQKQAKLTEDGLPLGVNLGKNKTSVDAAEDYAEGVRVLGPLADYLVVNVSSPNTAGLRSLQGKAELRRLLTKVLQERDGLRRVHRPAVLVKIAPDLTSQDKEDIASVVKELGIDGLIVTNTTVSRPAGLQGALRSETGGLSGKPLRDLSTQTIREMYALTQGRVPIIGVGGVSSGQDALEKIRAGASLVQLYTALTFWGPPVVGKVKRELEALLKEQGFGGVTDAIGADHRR

[3] = system: Plasmodium falciparum; experiment: Antiparasitic activity against asexual blood stage Plasmodium falciparum 3D7 incubated for 72 hrs by SYBR Green assay; type: functional, organism-based; conditions: 3D7, 72 h
[4] = Kinetic solubility of compound at pH 6.5 measured after 30 mins by nephelometry; type: physicochemical; conditions: buffer; for solubility kinetic at 0.5 h: pH 6.5, read-out: Kinetic_solubility; for Kinetic_solubility: pH 6.5, 0.5 h
[5] = Metabolic stability in human liver microsomes assessed as intrinsic clearance at 0.5 uM incubated for 60 mins in presence of NADPH by tandem quadrupole-Time of Flight MS; type: ADME, Microsome; conditions: 1 h

Row | Compound | IC50 [1] | IC50 [2] | EC50 [3] | solubility kinetic at 0.5 h [4] | intrinsic clearance (CLint) [5] | Kinetic_solubility [4]
1 | CCn1cc(C2CC2)c2c(CN3CCC(F)(F)C(C)(C)C3)n(C)nc2c1=O | 21 nM | > 30000 nM | 15 nM | 12.5 µM (≈ 4.73 µg/mL) | 160 µL/min/mg | –
2 | CCn1ccc2c([C@@](O)(CC)c3cnc(C(F)(F)F)c(Cl)c3)n(C)nc2c1=O | 27 nM | – | – | 40 µM (≈ 16.6 µg/mL) | 9.3 µL/min/mg | –
3 | CCn1cc(C2CC2)c2c(Cc3cnc(C(F)(F)F)c(OC)c3)n(C)nc2c1=O | 57 nM | > 100000 nM | 17 nM | 60 µM (≈ 24.4 µg/mL) | 25 µL/min/mg | –
4 | CCn1ccc2c(Cc3ccc(C(F)(F)F)nc3)n(C)nc2c1=O | 1500 nM | > 30000 nM | 580 nM | – | < 7 µL/min/mg | > 300 µM
5 | CC[C@@](O)(c1ccc(C(F)(F)F)c(Cl)c1)c1c2cnn(C3CC3)c(=O)c2nn1C | 6 nM | – | – | 6.25 µM (≈ 2.67 µg/mL) | < 3 µL/min/mg | –
6 | Cn1nc2c(=O)n(C3CC3)cnc2c1[C@@](O)(c1cnc(C(F)(F)F)c(Cl)c1)C(F)(F)F | 4500 nM | – | 550 nM | – | – | –
7 | CC[C@@](O)(c1ccc(F)c(Cl)c1)c1c2ccn(C3CC3)c(=O)c2nn1C | 7 nM | 700 nM | 1 nM | 40 µM (≈ 15 µg/mL) | 8.4 µL/min/mg | –
8 | CC[C@](N)(c1cnc(C(F)(F)F)c(Cl)c1)c1c2ccn(C3CC3)c(=O)c2nn1C | 17000 nM | – | 2300 nM | – | – | –
9 | Cn1nc2c(=O)n(C3CC3)cc(C3CC3)c2c1Cc1ccc(C(F)(F)F)nc1 | 43 nM | 17000 nM | 32 nM | 65 µM (≈ 25.2 µg/mL) | < 7 µL/min/mg | –
10 | Cn1nc2c(=O)n(C3CC3)cnc2c1[C@](O)(c1ccc(C(F)(F)F)c(C#N)c1)C(F)(F)F | 14 nM | 18000 nM | – | 40 µM (≈ 18.3 µg/mL) | < 3 µL/min/mg | –
11 | Cn1nc2c(=O)n(C3CC3)ccc2c1Cc1ccc(C(F)(F)F)c(C#N)c1 | 140 nM | > 100000 nM | 81 nM | 67 µM (≈ 24.9 µg/mL) | < 7 µL/min/mg | –
12 | CCn1cc(Cl)c2c(Cc3ccc(N4CCOCC4)nc3)n(C)nc2c1=O | 190 nM | > 100000 nM | 370 nM | 65 µM (≈ 25.2 µg/mL) | 15 µL/min/mg | –
13 | CCn1cc(C2CC2)c2c([C@H](N)c3ccc(C(F)(F)F)nc3)n(C)nc2c1=O | 180 nM | > 100000 nM | 27 nM | – | 3.8 µL/min/mg | > 320 µM
14 | CC(C)n1ccc2c(Cc3ccc(C(F)(F)F)nc3)n(C)nc2c1=O | 14000 nM | > 100000 nM | 6600 nM | – | – | –
15 | Cn1nc2c(=O)n(CCC3CC3)ccc2c1Cc1ccc(C(F)(F)F)nc1 | > 100000 nM | – | 14000 nM | – | – | –
16 | Cn1nc2c(=O)n(C3CC3)ncc2c1[C@](O)(c1ccc(C(F)(F)F)c(Cl)c1)C(F)(F)F | 9 nM | 22000 nM | – | 5 µM (≈ 2.33 µg/mL) | < 3 µL/min/mg | –
17 | CC[C@](O)(c1cnc(C(F)(F)F)c(Cl)c1)c1c2ccn(C3CC3)c(=O)c2nn1C | 14000 nM | – | 440 nM | – | – | –
18 | CCn1ccc2c([C@](C)(O)c3cnc(C(F)(F)F)c(Cl)c3)n(C)nc2c1=O | – | > 100000 nM | 1 nM | 80 µM (≈ 32.1 µg/mL) | 25 µL/min/mg | –

Row | Compound | IC50 [1] | IC50 [2] | EC50 [3] | solubility kinetic at 0.5 h [4] | intrinsic clearance (CLint) [5] | Kinetic_solubility [4]
19 | CCn1cc(Cl)c2c(Cc3ccc(N4CCN(C)CC4)nc3)n(C)nc2c1=O | 1500 nM | – | 2700 nM | – | – | –
20 | CCn1cc(C)c2c([C@@H](N)c3ccc(C(F)(F)F)nc3)n(C)nc2c1=O | 1100 nM | – | 2600 nM | – | – | –
21 | CCn1cc(C2CC2)c2c(Cc3cnc(C(F)(F)F)c(C)c3)n(C)nc2c1=O | – | 67000 nM | 4 nM | 50 µM (≈ 19.5 µg/mL) | 24 µL/min/mg | –
22 | CCn1cc(C2CC2)c2c(CN3CCC(F)(F)CC3)n(C)nc2c1=O | – | > 100000 nM | 300 nM | 50 µM (≈ 17.5 µg/mL) | 20 µL/min/mg | –
23 | Cn1nc2c(=O)n(C3CC3)ccc2c1[C@](N)(c1cnc(C(F)(F)F)c(Cl)c1)C(F)(F)F | – | > 30000 nM | 3 nM | 40 µM (≈ 18.6 µg/mL) | < 3 µL/min/mg | –
24 | Cn1nc2c(=O)n(C3CC3)ncc2c1[C@](O)(c1cnc(C(F)(F)F)c(Cl)c1)C1CC1 | – | > 30000 nM | 15 nM | 20 µM (≈ 8.8 µg/mL) | 5.4 µL/min/mg | –
25 | CC[C@@](N)(c1ccc(C(F)(F)F)c(Cl)c1)c1c2ncn(C3CC3)c(=O)c2nn1C | 9 nM | – | 1 nM | – | < 3 µL/min/mg | > 100 µM
26 | Cn1nc2c(=O)n(C3CC3)cnc2c1[C@](O)(c1cnc(C(F)(F)F)c(Cl)c1)C1CC1 | – | > 30000 nM | 4 nM | 80 µM (≈ 35.2 µg/mL) | < 3 µL/min/mg | –
27 | Cn1nc2c(=O)n(C3CC3)ccc2c1[C@](C)(O)c1cnc(C(F)(F)F)c(Cl)c1 | – | > 30000 nM | 1 nM | 80 µM (≈ 33 µg/mL) | 6.8 µL/min/mg | –
28 | Cn1nc2c(=O)n(C)ccc2c1Cc1ccc(C(F)(F)F)nc1 | 4500 nM | – | 6000 nM | – | – | –
29 | CCn1cc(C)c2c([C@H](O)c3cnc(C(F)(F)F)c(Cl)c3)n(C)nc2c1=O | – | > 100000 nM | 11 nM | 160 µM (≈ 64.1 µg/mL) | 3.2 µL/min/mg | –
30 | Cn1nc2c(=O)n(C3CC3)ccc2c1[C@](O)(c1ccc(F)c(Cl)c1)C(F)(F)F | – | 8500 nM | 1 nM | 20 µM (≈ 8.32 µg/mL) | < 3 µL/min/mg | –
31 | CCn1cc(C2CC2)c2c([C@H](O)c3cnc(C(F)(F)F)c(Cl)c3)n(C)nc2c1=O | – | > 100000 nM | 5 nM | 80 µM (≈ 34.1 µg/mL) | 6 µL/min/mg | –
32 | CC[C@](N)(c1cnc(C(F)(F)F)c(Cl)c1)c1c2ncn(C3CC3)c(=O)c2nn1C | 4200 nM | – | 980 nM | – | – | –
33 | Cn1nc2c(=O)n(C3CC3)ccc2c1Cc1ccc(C(F)(F)F)nc1 | 910 nM | > 100000 nM | 590 nM | – | – | –
34 | CCn1cc(C)c2c([C@@H](O)c3ccc(C(F)(F)F)nc3)n(C)nc2c1=O | 280 nM | – | 220 nM | – | – | –
35 | CC[C@@](O)(c1cc(F)c(F)c(F)c1)c1c2ccn(C3CC3)c(=O)c2nn1C | – | 2100 nM | 1 nM | 50 µM (≈ 18.9 µg/mL) | 6 µL/min/mg | –
36 | Cn1nc2c(=O)n(C3CC3)cc(Cl)c2c1Cc1ccc(C(F)(F)F)nc1 | – | 16000 nM | 20 nM | 70 µM (≈ 26.8 µg/mL) | 10 µL/min/mg | –
